Counter-ions that a name gives are not always drawn.
What follows are compounds tested on T1, 1N4R p-tau (assay: p-tau aggregation modulator screen of 1280-compound library (ThS fluorescence net change over 16 h)). Details: not given.
T1 construct: made in house; host or cells: E. coli (PIMAX system)
Format: biochemical
Parameters: key to PTAI>3SD: *: PTAI>3SD
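Throughout, for ThS net change: 30 µM compound with 6 µM p-tau over 16 h.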

SMILES | ThS net change
C=CC[C@]1(O)CC[C@H]2[C@@H]3CCC4=CC(=O)CCC4=C3C=C[C@@]21C [Altrenogest] | 432
N[C@@H]1C[C@H]1c1ccccc1 [Tranylcypromine hydrochloride] | 377
NC(=O)C[S+]([O-])C(c1ccccc1)c1ccccc1 (stereo not drawn) [Modafinil] | 413
CN(C)CCCN1c2ccccc2CCc2ccc(Cl)cc21 [Clomipramine hydrochloride] | 307
C[C@]12CC[C@H](O)C[C@@H]1CC[C@@H]1[C@@H]2CC[C@]2(C)C(=O)CC[C@@H]12 [Epiandrosterone] | 440
Nc1nc2[nH]cc(CCc3ccc(C(=O)N[C@@H](CCC(=O)O)C(=O)O)cc3)c2c(=O)[nH]1 [Pemetrexed disodium] | 441
O=C1c2c(O)ccc(O)c2C(=O)c2c(NCCNCCO)ccc(NCCNCCO)c21 [Mitoxantrone dihydrochloride] | 328
COc1cccc(N(C)C(=S)Oc2ccc3c(c2)CCCC3)n1 [Liranaftate] | 435

Same assay, conditions: 1280-compound library screen; ThS fluorescence net change over 16 h

SMILES | ThS net change
CNS(=O)(=O)Cc1ccc2[nH]cc(CCN(C)C)c2c1 [Sumatriptan succinate] | 393
C=C1/C(=C\C=C2/CCC[C@]3(C)[C@@H]([C@H](C)/C=C/[C@@H](O)C4CC4)CC[C@@H]23)C[C@@H](O)C[C@@H]1O [Calcipotriene] | 407
CCCNC(C)(C)COC(=O)c1ccccc1 [Meprylcaine hydrochloride] | 405
CCCCNc1cc(C(=O)O)cc(S(N)(=O)=O)c1Oc1ccccc1 [Bumetanide] | 408
CSc1ccc2c(c1)C(N1CCN(C)CC1)Cc1ccccc1S2.O=C(O)/C=C\C(=O)O (stereo not drawn) [Methiothepin maleate] | 379
CCCOc1ccc(C(=O)OCCN(CC)CC)cc1N [Proparacaine hydrochloride] | 392
Nc1cc(-c2ccncc2)c[nH]c1=O [Amrinone] | 410
CN(C)/N=N/c1[nH]cnc1C(N)=O [Dacarbazine] | 392
CCOc1ccc(NC(C)=O)cc1 [Phenacetin] | 400
CNCCCC1c2ccccc2C=Cc2ccccc21 [Protriptyline hydrochloride] | 412
CC(C(=O)O)c1ccc(C(=O)c2ccccc2)s1 (stereo not drawn) [Tiaprofenic acid] | 381
CCN(CC)CCc1nc(-c2ccccc2)no1.O=C(O)CC(O)(CC(=O)O)C(=O)O [Oxalamine citrate salt] | 410
C[C@@H](O)[C@H]1C(=O)N2C(C(=O)O)=C(SCCN=CN)C[C@H]12 [Imipenem] | 385
CCN(CC)C(=O)Nc1ccc(OCC(O)CNC(C)(C)C)c(C(C)=O)c1 (stereo not drawn) [Celiprolol HCl] | 396
C#CCN(C)Cc1ccccc1 [Pargyline hydrochloride] | 389
C=CCOc1ccccc1OCC(O)CNC(C)C (stereo not drawn) [Oxprenolol hydrochloride] | 404
CC(=O)OCC(=O)[C@@]1(OC(C)=O)[C@@H](C)C[C@H]2[C@@H]3C[C@H](F)C4=CC(=O)C=C[C@]4(C)[C@@]3(F)[C@@H](O)C[C@@]21C [Diflorasone Diacetate] | 407
CCC(=O)O[C@]1(C(=O)CCl)[C@@H](C)C[C@H]2[C@@H]3CCC4=CC(=O)C=C[C@]4(C)[C@@]3(F)[C@@H](O)C[C@@]21C [Clobetasol propionate] | 409
CC(CN(C)C)CN1c2ccccc2CCc2ccccc21.O=C(O)/C=C\C(=O)O (stereo not drawn) [Trimipramine maleate salt] | 399
Nc1ccn([C@@H]2O[C@H](CO)[C@@H](O)[C@@H]2O)c(=O)n1 [Cytarabine] | 392

Same assay, conditions: 1280-compound library screen; […]

SMILES | ThS net change
C[C@]12CC[C@H](O)C[C@H]1CC[C@@H]1[C@@H]2CC[C@]2(C)[C@@H](C3=CC(=O)OC3)CC[C@]12O [Digitoxigenin] | 383
CNCC[C@@H](Oc1ccccc1C)c1ccccc1 [Tomoxetine hydrochloride] | 389
Oc1cc(Cl)ccc1Oc1ccc(Cl)cc1Cl [Triclosan] | 398
CNC(C)(C)Cc1ccccc1.CNC(C)(C)Cc1ccccc1.O=S(=O)(O)O [Mephentermine hemisulfate] | 380

Same assay, conditions: flag: p-tau aggregation inhibitor, ThS net change more than 3 SD from mean

SMILES | PTAI>3SD
Cc1cc(C2CCCCC2)n(O)c(=O)c1.NCCO [Ciclopirox ethanolamine] | *
CO[C@H]1/C=C/O[C@@]2(C)Oc3c(C)c(O)c4c(O)c(c(/C=N/N5CCN(C6CCCC6)CC5)c(O)c4c3C2=O)NC(=O)/C(C)=C\C=C\[C@H](C)[C@H](O)[C@@H](C)[C@@H](O)[C@@H](C)[C@H](OC(C)=O)[C@@H]1C [Rifapentine] | *

Same assay, conditions: library screen, ThS fluorescence net change over 16 h with p-tau

SMILES | ThS net change
O=C(O)c1cc(/N=N/c2ccc(S(=O)(=O)Nc3ccccn3)cc2)ccc1O [Sulfasalazine] | 282
O=C(CCCN1CCC2(CC1)C(=O)NCN2c1ccccc1)c1ccc(F)cc1 [Spiperone] | 313
Cc1cc(C2CCCCC2)n(O)c(=O)c1.NCCO [Ciclopirox ethanolamine] | 20
CC(C)N1CCN(c2ccc(OCC3COC(Cn4cncn4)(c4ccc(Cl)cc4Cl)O3)cc2)CC1 (stereo not drawn) [Terconazole] | 326
CO[C@H]1/C=C/O[C@@]2(C)Oc3c(C)c(O)c4c(O)c(c(/C=N/N5CCN(C6CCCC6)CC5)c(O)c4c3C2=O)NC(=O)/C(C)=C\C=C\[C@H](C)[C@H](O)[C@@H](C)[C@@H](O)[C@@H](C)[C@H](OC(C)=O)[C@@H]1C [Rifapentine] | 86
Clc1ccc(C(Cn2ccnc2)OCc2c(Cl)cccc2Cl)c(Cl)c1 (stereo not drawn) [Isoconazole] | 296
CN(C)[C@@H]1C(O)=C(C(N)=O)C(=O)[C@@]2(O)C(O)=C3C(=O)c4c(O)ccc(Cl)c4[C@@](C)(O)[C@H]3C[C@@H]12 [Chlortetracycline hydrochloride] | 223
COc1cc(C(=O)NCc2ccc(OCCN(C)C)cc2)cc(OC)c1OC [Trimethobenzamide hydrochloride] | 322

Same assay, conditions: p-tau aggregation modulator screen of 1280-compound library; ThS fluorescence net change

SMILES | ThS net change
O=c1c2ccccc2[se]n1-c1ccccc1 [Ebselen] | 348
COc1ccc2[nH]c([S+]([O-])Cc3ncc(C)c(OC)c3C)nc2n1 (stereo not drawn) [Tenatoprazole] | 371
CC(=O)Oc1ccccc1C(=O)Oc1ccccc1C(=O)O [Acetylsalicylsalicylic acid] | 363
Cc1cc(NC(=O)C2=C(O)c3ccccc3S(=O)(=O)N2C)no1 [Isoxicam] | 364
Cc1cnc(NC(=O)C2=C(O)c3ccccc3S(=O)(=O)N2C)s1 [Meloxicam] | 375
CC(N)CCCC(C)(C)O (stereo not drawn) [Heptaminol hydrochloride] | 362
C/C(=C(\CCOP(=O)(O)O)SC(=O)c1ccccc1)N(C=O)Cc1cnc(C)nc1N [Benfotiamine] | 375
COC(=O)Nc1nc2cc(SC(C)C)ccc2[nH]1 [Methiazole] | 365
CN1CCC(=C2c3ccccc3CC(=O)c3sccc32)CC1 [Ketotifen fumarate] | 366
Cc1ccccc1N1C(=O)c2cc(S(N)(=O)=O)c(Cl)cc2NC1C (stereo not drawn) [Metolazone] | 364
CC[C@]12CCCN3CCc4c(n(c5ccccc45)[C@@](O)(C(=O)OC)C1)[C@@H]32 [Vincamine] | 348
O=C1NCC2(CCN(CCc3ccccc3)CC2)O1 [Fenspiride hydrochloride] | 362
Cc1c(N(C)CS(=O)(=O)[O-])c(=O)n(-c2ccccc2)n1C.[Na+] [Dipyrone] | 363
CCCCN1CCCCC1C(=O)Nc1c(C)cccc1C (stereo not drawn) [Bupivacaine hydrochloride] | 364
Clc1ccc(Nc2nnc(Cc3ccncc3)c3ccccc23)cc1 [Vatalanib] | 356

Same assay, conditions: p-tau aggregation modulator screen of 1280-compound library; […]

SMILES | ThS net change
NCC1(CC(=O)O)CCCCC1 [Gabapentin] | 363
C[C@]12N[C@H](Cc3ccccc31)c1ccccc12 [Dizocilpine maleate] | 349
Cc1cc(C)nc([N-]S(=O)(=O)c2ccc(N)cc2)n1.[Na+] [Sulfamethazine sodium salt] | 366

Same assay, conditions: p-tau aggregation modulator screen of the compound library, ThS fluorescence net change

SMILES | ThS net change
O=C1Nc2ccc(Cl)cc2[C@@](C#CC2CC2)(C(F)(F)F)O1 [Efavirenz] | 436
N#Cc1ccc(C(c2ccc(C#N)cc2)n2cncn2)cc1 [Letrozole] | 453
CCOC(=O)O[C@]1(C(=O)COC(=O)CC)CC[C@H]2[C@@H]3CCC4=CC(=O)C=C[C@]4(C)[C@H]3[C@@H](O)C[C@@]21C [Prednicarbate, prednicarbate] | 910
O=C1c2cccc3c2[C@H](CCC3)CN1[C@@H]1CN2CCC1CC2 [Palonosetron hydrochloride] | 458
CC(C)COCC(CN(Cc1ccccc1)c1ccccc1)N1CCCC1 (stereo not drawn) [Bepridil hydrochloride] | 418
CNC1(C)C2CCC(C2)C1(C)C (stereo not drawn) [Mecamylamine hydrochloride] | 418
CC(=O)O[C@H]1C[C@@]2(C)[C@@H](C[C@@H](O)[C@H]3[C@@]4(C)CC[C@@H](O)[C@@H](C)[C@@H]4CC[C@@]32C)/C1=C(\CCC=C(C)C)C(=O)O [Fusidic acid sodium salt] | 438
CC[N+](C)(C)Cc1ccccc1Br [Bretylium tosylate] | 431
C#C[C@]1(OC(C)=O)CC[C@H]2[C@@H]3CCC4=CC(=NO)CC[C@@H]4[C@H]3CC[C@@]21CC (mixture of isomers) [Norgestimate] | 486
CCn1nc(C(=O)O)c(=O)c2cc3c(cc21)OCO3 [Cinoxacin] | 431
CC(C)OC(=O)C(C)(C)Oc1ccc(C(=O)c2ccc(Cl)cc2)cc1 [Fenofibrate] | 531
CN(Cc1cc(Br)cc(Br)c1N)C1CCCCC1 [Bromhexine hydrochloride] | 545
CN1CCC(=C2c3ccccc3CCc3cccnc32)CC1 [Azatadine maleate] | 417
CC[C@H]1OC(=O)[C@H](C)[C@@H](O[C@H]2C[C@@](C)(OC)[C@@H](O)[C@H](C)O2)[C@H](C)[C@@H](O[C@@H]2O[C@H](C)C[C@H](N(C)C)[C@H]2O)[C@](C)(OC)C[C@@H](C)C(=O)[C@H](C)[C@@H](O)[C@]1(C)O [Clarithromycin] | 416
N=C(N)c1ccc(OCCCCCOc2ccc(C(=N)N)cc2)cc1 [Pentamidine isethionate] | 479

— PMC7539012, “Hyperphosphorylated tau aggregation and cytotoxicity modulators screen identified prescription drugs linked to Alzheimer's disease and cognitive functions” (Scientific Reports, 2020)
